From patent publication US11458144B1, “Methods for using 5-HMF analogs with increased solubility to inhibit or reverse RBC sickling” (King Abdulaziz University, priority 2021, dated 2022)

Tests used:
SS RBCs = assay: Antisickling study (RBC morphology) in SS blood under hypoxia; format: cell-based, human; conditions: 2 mM; for antisickling activity relative to 5-HMF: over 5-HMF; for inhibition at 2000 µM: Homo sapiens, SS blood hematocrit 20%, 2.5% O2, 37° C., read-out: % Sickling inhibition
Method: (§1) The effect of the MMA compounds and positive control 5-HMF on RBC sickling, Hb modification, and Hb oxygen equilibrium was studied utilizing SS blood following previous procedure.^[27]
For the antisickling study, SS blood (hematocrit 20%) were incubated under air in the absence or presence of all the MMA compounds (0.5 mM, 1 mM and 2 mM) at 37° C. for 1 h, followed by incubating the mixture under hypoxic conditions (2.5% O2) at 37° C. for 2 h. Aliquots with fixed 2% glutaraldehyde solution and under anaerobic condition were subjected to microscopic morphological analysis.^[11]
(§2) Using homozygous sickle (SS) blood from patients, the MMA compounds (MMA502, MMA503, MMA504, MMA505, and MMA509 were tested with 5-HMF as control for Hb adduct formation, effect on Hb affinity for oxygen and corresponding antisickling activities (RBC morphology study) using previously published protocols.^14,15

Hb [1] = target: T1, Hb (Homo sapiens, UniProt P68871+P69905, E7V); assay: Oxygen equilibrium study (P50 shift) of lysates from SS blood, Hemox Analyzer; format: cell-based; conditions: SS RBCs
T1 construct: Using homozygous sickle (SS) blood from patients; endogenous in cells; host or cells: red blood cells of homozygous SS patient blood (hematocrit 20%); clarified lysates measured after incubation
Method: as §1
For the oxygen equilibrium study, about 100 μL aliquot of clarified lysate of residual samples from the above antisickling study was added to 4 mL of 0.1 M potassium phosphate buffer, pH 7.0, in cuvettes and subjected to hemoximetry analysis using Hemox™ Analyzer (TCS Scientific Corp., New Hope, Pa.) to assess P50 shift, which is the partial pressure of oxygen (PO2) at which 50% of Hb is saturated with oxygen (SO2). Degree of Hb O2 affinity shift (ΔP50) was expressed as percentage fractions of control DMSO-treated samples.
as §2

Hb [2] = target: T1, Hb; assay: Hb adduct formation (Hb modification) by cation-exchange HPLC, SS blood lysates; format: binding; conditions: SS RBCs
Excerpt: as §1
The Hb adduct formation study also used clarified lysates that were subjected to a cation-exchange HPLC (Hitachi D-7000 Series, Hitachi Instruments, Inc., San Jose, Calif.), and a weak cation-exchange column (Poly CAT A: 30 mm×4.6 mm, Poly LC, Inc., Columbia, Md.).
as §2

HbA = target: T2, HbA (Homo sapiens, UniProt P68871+P69905); assay: Time-dependent Hb oxygen equilibrium study in normal whole blood; format: cell-based; conditions: 2 mM, 20% hematocrit
T2 construct: time-dependent P50-shift of HbA in normal blood (20% hematocrit); endogenous in cells; host or cells: red blood cells in normal whole blood of adult donors (hematocrit 20%)
Method: The time-dependent effect of the MMA compounds and positive control 5-HMF on Hb oxygen affinity was studied using normal blood following previous procedure.^[15] Briefly, normal blood samples (hematocrit 20%) were incubated with the compounds at 37° C. for 24 h. Aliquots were taken at various time points and incubated in IL 237 tonometers (Instrumentation Laboratories, Inc. Lexington, Mass.) for 10 minutes at 37° C., and allowed to equilibrate at oxygen tensions 6, 20, and 40 mmHg. The samples were then aspirated into an ABL 700 Automated Blood Gas Analyzer (Radiometer) to determine the pH, partial pressure of CO2 (pCO2), partial pressure of oxygen (pO2), and Hb oxygen saturation values (SO2). The measured values of pO2 (mmHg) and SO2 at each pO2 value were then subjected to a non-linear regression analysis using the program Scientist (Micromath, Salt Lake City, Utah) to estimate P50 as previously reported.^[28]
5-HMF has a short half-life and poor oral bioavailability due to this metabolic instability, which in part prevented its development for chronic use. Nonetheless, this metabolic instability could be advantageous for parenteral formulation for acute use. […] Briefly, blood samples (hematocrit 20%) were incubated with the compounds at 37° C. for 24 h, and aliquots were taken at the various time points and used to determine the PO2 and SO2 using ABL 800 Automated Blood Gas Analyzer (Radiometer), and to estimate P50 as previously reported.^[10]
The study confirmed the trend in the biological potencies observed with SS blood.

[3] = system: human cytochrome P450 (CYP) enzymes; assay: In vitro CYP inhibition, panel of seven enzymes (overall statement); format: in vitro ADME; conditions: 0.1 to 100 μM; pooled human liver microsomes
Method: The probe substrates include tacrine (CYP1A2), amodiaquine (CYP2C8), tolbutamide (CYP2C9), mephenytoin (CYP2C19), dextromethorphan (CYP2D6), midazolam (CYP3A4), testosterone (CYP3A4), and bupropion (CYP2B6). […] The assays were performed in duplicate in 96-well plates at 37° C. for 10-60 minutes. The reaction was terminated with addition of methanol, followed by incubation at 4° C. for 10 min and centrifuged at 4° C. for 10 min.

Row | Structure (SMILES) | antisickling activity relative to 5-HMF (SS RBCs) [fold] | inhibition at 2000 µM (SS RBCs) [%] | % Hb-O2 affinity (P50 shift vs DMSO control) (Hb [1]; 0.5 mM) [%] | % Hb-O2 affinity (P50 shift vs DMSO control) (Hb [1]; 1 mM) [%] | % Hb-modification (adduct formation) (Hb [2]; 0.5 mM) [%] | % Hb-modification (adduct formation) (Hb [2]; 1 mM) [%] | further results
1 | N#Cc1ccc(C=O)o1 [MMA-505, 5-formylfuran-2-carbonitrile] | ~2.5 | 55 | 5.5 ± 1.2 | 14.6 ± 2.1 | 4.2 ± 1.6 | 10.4 ± 2.6 | % Hb-O2 affinity (P50 shift vs DMSO control) (Hb [1]; 2 mM, listed as 505): 32.0 ± 3.0%; % Hb-O2 affinity (P50 shift vs DMSO control) (Hb [1]; 2 mM, listed as MMA505): 40%; % Hb-modification (adduct formation) (Hb [2]; 2 mM, listed as 505): 26.7 ± 6.0%; % Hb-modification (adduct formation) (Hb [2]; 2 mM, listed as MMA505): 27%; %P50 shift (HbA; at 1 hour): 11%; duration of effect on Hb oxygen affinity (HbA; time course 0-8 hrs): completely losing activity after 3 hours
2 | O=Cc1ccc(C(F)F)o1 [MMA-502, 5-(difluoromethyl)furan-2-carbaldehyde] | ~2.5 | – | 14.2 ± 3.4 | 8.8 ± 0.5 | 9.6 ± 0.0 | 20.4 ± 6.6 | % Hb-O2 affinity (P50 shift vs DMSO control) (Hb [1]; 2 mM, listed as 502): 31.5 ± 12.7%; % Hb-O2 affinity (P50 shift vs DMSO control) (Hb [1]; 2 mM, listed as MMA502): 32%; % Hb-modification (adduct formation) (Hb [2]; 2 mM, listed as 502): 42.4 ± 10.9%; % Hb-modification (adduct formation) (Hb [2]; 2 mM, listed as MMA502): 42%
3 | O=Cc1ccc(N2CCC(O)CC2)o1 [MMA-504, 5-(4-hydroxypiperidin-1-yl)furan-2-carbaldehyde] | – | 27 | 4.4 ± 5.1 | 5.3 ± 1.5 | 0.0 ± 0.0 | 0.0 ± 1.0 | % Hb-O2 affinity (P50 shift vs DMSO control) (Hb [1]; 2 mM, listed as 504): 2.7 ± 1.2%; % Hb-O2 affinity (P50 shift vs DMSO control) (Hb [1]; 2 mM, listed as MMA504): 3%; % Hb-modification (adduct formation) (Hb [2]; 2 mM, listed as 504): 0.4 ± 0.8%; % Hb-modification (adduct formation) (Hb [2]; 2 mM, listed as MMA504): < 1%
4 | O=Cc1ccc(C2CCCCO2)o1 (stereo not drawn) [MMA-509] | – | – | 16.3 ± 1.5 | 34.5 ± 14.4 | 16.2 ± 0.0 | 27.6 ± 3.6 | % Hb-O2 affinity (P50 shift vs DMSO control) (Hb [1]; 2 mM, listed as 509): 58.5 ± 15.3%; % Hb-O2 affinity (P50 shift vs DMSO control) (Hb [1]; 2 mM, listed as MMA509): 59%; % Hb-modification (adduct formation) (Hb [2]; 2 mM, listed as 509): 53.3 ± 3.9%; % Hb-modification (adduct formation) (Hb [2]; 2 mM, listed as MMA509): 53%; %P50 shift (HbA; at 1.5 hours): 60%; inhibition of liver CYP isozymes [3]: no inhibition
5 | O=Cc1ccc(-c2ccn[nH]2)o1 [MMA-503, 5-(1H-pyrazol-5-yl)furan-2-carbaldehyde] | – | – | 8.0 ± 1.1 | 20.0 ± 2.5 | 4.8 ± 2.1 | 18.0 ± 7.9 | % Hb-O2 affinity (P50 shift vs DMSO control) (Hb [1]; 2 mM, listed as 503): 37.1 ± 2.5%; % Hb-O2 affinity (P50 shift vs DMSO control) (Hb [1]; 2 mM, listed as MMA503): 37%; % Hb-modification (adduct formation) (Hb [2]; 2 mM, listed as 503): 34.6 ± 7.1%; % Hb-modification (adduct formation) (Hb [2]; 2 mM, listed as MMA503): 35%
